Source: patent US20250255781A1, “PROCESSES FOR PREPARATION OF 3-D PRINTED PHARMACEUTICAL PRODUCTS” (BRISTOL-MYERS SQUIBB COMPANY, priority 2022, published 2025)

Assay: Thermal gravimetric analysis (TGA) of thermal stability
Type: physicochemical
Conditions: heated 25-500° C. at 10° C./min; degradation beyond
Protocol: 2-2.5 mg of polymer and drug samples were carefully weighed and positioned in to a standard aluminium pan. The samples were heated from 25° C. to 500° C. at 10° C./min. The extracted raw data were analysed via TA Universal Analysis software (Universal Analysis 2000, version 4.5A, TA instruments, USA).

In the case of `CC(C)Cc1ccc(C(C)C(=O)O)cc1` (stereo not shown) [IBU, Ibuprofen], the “thermally stable when heated up to (TGA)” value is reported as “up to 140 °C”.
